{"source": "paper PMC8279981", "about": "“A first-in-human, phase 1 study of the NEDD8 activating enzyme E1 inhibitor TAS4464 in patients with advanced solid tumors” (Investigational New Drugs, 2021)", "key": {"[1]": {"system": "nuclear factor κB (NFκB) activation", "parameters": "method as in PMID 31583781", "conditions": "multiple myeloma models; cited from earlier work"}, "[2]": {"assay": "Plasma pharmacokinetics of TAS4464 in patients", "type": "in vivo, human", "protocol": "(§1) The PK endpoints included maximum plasma concentration (Cmax), area under the concentration–time curve from time zero up to the last observable concentration (AUC0-last) and plasma accumulation of TAS4464 after multiple doses. PK parameters were evaluated on Day 1 of Cycle 1 and Day 15 of Cycle 1 in the weekly dosing cohort, as well as on Day 1 of the lead-in period and Day 1 of Cycle 1 in the weekly with lead-in dosing cohort. The evaluation of the relationship between solute carrier organic anion transporter family member 1B1 (SLCO1B1) genetic polymorphisms and PK (i.e., the mean and individual clearance [CL] and volume of distribution at steady-state [Vdss] by each OATP1B1 phenotype) was assessed as the PGx analysis endpoint.\nThe analysis populations included in the study are summarized in the Supplementary Appendix. DLTs were recorded by incidence and 95% confidence intervals (CI). Median PFS and 95% CIs were calculated using Kaplan–Meier methodology. Best overall response was tabulated, and the ORR and DCR with 95% CIs were calculated by dose level. PK parameters were evaluated using non-compartmental methods. For the pharmacodynamic parameter of cullin-NEDD8 in PBMC, summary statistics and a scatter plot of the percentage change from baseline were produced. Missing data were not imputed. […] SAS software v9.4 (SAS Institute Inc., Cary NC, USA) was used for all statistical processing."}, "[3]": {"system": "patients with advanced or metastatic solid tumors", "assay": "Phase 1 study: dose-limiting toxicities and maximum tolerated dose", "type": "in vivo", "protocol": "The highest non-severely toxic dose was derived from a dog toxicology study and was used to calculate a clinical starting dose of 10 mg/m^2, which corresponds to one-sixth of the human-equivalent dose. The maximum tolerated dose (MTD) of TAS4464 was investigated using an accelerated titration design. Initially, the starting TAS4464 dose was 10 mg/m^2 and was followed by an initial accelerated stage (i.e., weekly dosing phase) with 100% dose-step increments (level 1: 10 mg/m^2, level 2: 20 mg/m^2, level 3: 40 mg/m^2, and level 4: 56 mg/m^2). The 100% dose-step increments continued until the occurrence of a grade ≥ 2 drug-related toxicity within Cycle 1; dose-limiting toxicity (DLT) within Cycle 1; the next dose level reaching 60 mg/m^2; or any safety concerns. Thereafter, 40% increments were employed in the standard stage.\nIn the standard stage, three to six patients were to be enrolled, and the dose was escalated in 40% increments if none of the first three patients experienced a DLT. If one patient experienced a DLT, three additional patients were to be enrolled at the same dose level. If two of three or two of six patients experienced a DLT, the dose escalation was to be ceased. […] Additionally, DLT criteria regarding abnormal liver function and discontinuation criteria for study drug administration were added. The TAS4464 dose level for Day 1 of Cycle 1 was then set to 40 mg/m^2 (level 3).\nThe primary objective of the study was to investigate DLTs. Treatment-related adverse events (AEs) during the lead-in period and Cycle 1 were included in the assessment of DLT, which was defined as follows: 1) grade 4 neutropenia lasting >7 days or neutropenia requiring treatment; 2) grade 4 thrombocytopenia or thrombocytopenia requiring blood transfusion; 3) febrile neutropenia; 4) grade ≥ 3 nausea, vomiting, or diarrhea lasting >48 h and uncontrolled by treatment; 5) grade ≥ 3 aspartate aminotransferase (AST) increase or alanine aminotransferase (ALT) increase lasting ≥3 days; or 6) any other grade ≥ 3 non-hematologic toxicity."}, "dog": {"system": "dog", "parameters": "method as in unpublished data", "conditions": "TAS4464 without a N,N-dimethylacetamide group; ref unpublished data; cited from earlier work"}, "OATP1B1": {"system": "OATP1B1", "assay": "Pharmacogenomics: SLCO1B1 polymorphisms versus PK", "type": "in vivo, human", "conditions": "phenotype assigned by SLCO1B1 genotypes; data not shown", "protocol": "as §1"}, "[4]": {"conditions": "plasma, multiple doses, data not shown"}}}
{"smiles": "CCOc1cccc(F)c1C#Cc1cn([C@@H]2O[C@H](CNS(N)(=O)=O)[C@@H](O)[C@H]2O)c2ncnc(N)c12", "note": "[TAS4464]", "values": [{"measurement": "mechanism of antitumor activity", "setting": "[1]", "result": "inhibition of nuclear factor κB (NFκB) activation"}, {"measurement": "dose dependence of Cmax and AUC", "setting": "[2]; dose range of 10–56 mg/m^2", "result": "generally increased with increasing dose"}, {"measurement": "accumulation ratio of AUC0-last [R (AUC0-last)]", "setting": "[2]; [4]", "result": "~1.0"}, {"measurement": "accumulation ratio of Cmax [R (Cmax)]", "setting": "[2]; [4]", "result": "~1.0"}, {"measurement": "MTD", "setting": "[3]; weekly dosing regimen", "result": "could not be determined"}, {"measurement": "DLT incidence (grade 3 ALT increased and grade 3 AST increased)", "setting": "[3]; weekly dosing with lead-in period, dose level 4 (56 mg/m^2)", "result": "1/5"}, {"measurement": "DLT incidence (grade 4 ALT increased)", "setting": "[3]; weekly dosing, dose level 4 (56 mg/m^2), DLT-evaluable population", "result": "1/5 and one of five patients"}, {"measurement": "toxic liver findings", "setting": "dog", "result": "toxic liver findings were not observed"}, {"measurement": "mean and individual CL and Vdss by OATP1B1 phenotype", "setting": "OATP1B1", "result": "no obvious differences were observed"}]}
